Measurements: patent publication US4581352A, “Thienothienylglycyl cephalosporin derivatives” (priority 1984, dated 1986)
In brackets after ≈: the same amount, converted by molar mass. Read-outs that look alike come from different tables or passages of the source.

Legend:
Type in all cases: cell-based
[1] = system: H. influ.; assay: in vitro agar dilution assay (MIC), H. influ.
[2] = system: Strep. D; assay: in vitro agar dilution assay (MIC), Strep. D; conditions: for MIC: read-out: Agar Dilution MIC
Text: (§1) A typical and preferred compound provided by this invention is 7-(thieno[3,2-b]thien-2-yl)glycylamido-3-methyl-3-cephem-4-carboxylic acid, the compound illustrated in Example 1. The antibacterial activity of this compound and others of the invention has been determined in standard in vitro agar dilution assays against a variety of gram positive microorganisms. The following Tables present typical minimum inhibitory concentrations (MIC's) in μg/ml for several compounds of the invention when evaluated against the indicated microorganisms. MIC's for several known compounds are also presented for comparison.

[3] = system: Strep. A; assay: in vitro agar dilution assay (MIC), Strep. A; conditions: read-out: Agar Dilution MIC
Text: as §1

[4] = system: Staph. epi; assay: in vitro agar dilution assay (MIC), Staph. epi; conditions: read-out: Agar Dilution MIC
[5] = system: Staph. aureus; assay: in vitro agar dilution assay (MIC), Staph. aureus; conditions: Staphylococcus aureus
[6] = system: E. coli; assay: in vitro agar dilution assay (MIC), E. coli; conditions: Escherichia coli
[7] = system: Strep. PN; assay: in vitro agar dilution assay (MIC), Strep. PN; conditions: read-out: Agar Dilution MIC
Text: as §1

[8] = system: Klebsiella; assay: in vitro agar dilution assay (MIC), Klebsiella
[9] = read-out: Agar Dilution MIC, Staph. aureus strain S13E
[10] = Klebsiella strain X26, read-out: Agar Dilution MIC
[11] = Klebsiella strain X68, read-out: Agar Dilution MIC
[12] = Staph. aureus strain X400, read-out: Agar Dilution MIC
[13] = Staph. aureus strain X1.1, read-out: Agar Dilution MIC
[14] = Klebsiella strain KAE, read-out: Agar Dilution MIC
[15] = Staph. aureus strain V41, read-out: Agar Dilution MIC

Row | SMILES | MIC ([1]; H. influ. strain 76) [µg/mL] | MIC ([1]; H. influ. strain C.L.) [µg/mL] | MIC ([2]; Strep. D strain 2041) [µg/mL] | MIC ([3]; Strep. A strain C203) [µg/mL] | MIC ([4]; Staph. epi strain EPI1) [µg/mL] | MIC [5, 9] [µg/mL] | MIC ([6]; E. coli strain EC14) [µg/mL] | MIC ([6]; E. coli strain N10) [µg/mL] | MIC ([7]; Strep. PN strain PARK) [µg/mL] | MIC [8, 10] [µg/mL] | MIC [8, 11] [µg/mL] | MIC ([6]; E. coli strain TEM) [µg/mL] | MIC ([2]; Strep. D strain X66) [µg/mL] | MIC ([4]; Staph. epi strain 222) [µg/mL] | MIC [5, 12] [µg/mL] | MIC ([5]; read-out: Agar Dilution MIC) [µg/mL] | MIC [5, 13] [µg/mL] | MIC [8, 14] [µg/mL] | MIC [5, 15] [µg/mL] | other results
1 | CC1(C)S[C@@H]2[C@H](NC(=O)[C@H](N)c3ccccc3)C(=O)N2[C@H]1C(=O)O [Ampicillin, reference compound] | 16 (≈ 45.8 µM) | 0.5 (≈ 1.43 µM) | 2 (≈ 5.72 µM) | 0.03 (≈ 0.0859 µM) | 8 (≈ 22.9 µM) | 64 (≈ 183 µM) | 4 (≈ 11.4 µM) | 8 (≈ 22.9 µM) | 0.03 (≈ 0.0859 µM) | 16 (≈ 45.8 µM) | 16 (≈ 45.8 µM) | – | – | – | – | – | – | – | – | MIC [2]: 4 µg/mL (≈ 11.4 µM)
2 | CC1=C(C(=O)O)N2C(=O)[C@@H](NC(=O)[C@H](N)c3ccccc3)[C@H]2SC1 [Cephalexin, reference compound] | – | – | – | – | 32 (≈ 92.1 µM) | 128 (≈ 368 µM) | 4 (≈ 11.5 µM) | 8 (≈ 23 µM) | – | – | – | 8 (≈ 23 µM) | – | – | – | – | – | – | – | Agar Dilution MIC ([2]; Strep. D strain 2041): 128 µg/mL; MIC [2]: 128 µg/mL (≈ 368 µM); MIC [3]: 0.5 µg/mL (≈ 1.44 µM); MIC [4]: 8 µg/mL (≈ 23 µM); MIC [7]: 2 µg/mL (≈ 5.76 µM); MIC ([8]; read-out: Agar Dilution MIC, Klebsiella strain KAE): 128 µg/mL (≈ 368 µM); MIC ([8]; read-out: Agar Dilution MIC, Klebsiella strain X26): 4 µg/mL (≈ 11.5 µM); MIC ([8]; read-out: Agar Dilution MIC, Klebsiella strain X68): 8 µg/mL (≈ 23 µM)
3 | CC1=C(C(=O)O)N2C(=O)[C@@H](NC(=O)[C@H](N)c3cc4sccc4s3)[C@H]2SC1 [Ex. 1A, 7-D-(thieno[3,2-b]thien-2-yl)-glycylamido-3-methyl-3-cephem-4-carboxylic acid] | 2 (≈ 4.88 µM) | 64 (≈ 156 µM) | > 64 | 0.25 (≈ 0.61 µM) | 16 (≈ 39.1 µM) | 64 (≈ 156 µM) | > 64 | > 64 | 1 (≈ 2.44 µM) | 8 (≈ 19.5 µM) | > 64 | > 64 | > 64 | 2 (≈ 4.88 µM) | > 64 | 32 (≈ 78.1 µM) | 0.5 (≈ 1.22 µM) | > 64 | – | –
4 | CC1=C(C(=O)O)N2C(=O)[C@@H](NC(=O)[C@@H](N)c3cc4sccc4s3)[C@H]2SC1 [Ex. 1B, 7-L-(thieno[3,2-b]thien-2-yl)-glycylamido-3-methyl-3-cephem-4-carboxylic acid] | – | 64 (≈ 156 µM) | > 64 | 16 (≈ 39.1 µM) | 64 (≈ 156 µM) | 64 (≈ 156 µM) | > 64 | > 64 | 16 (≈ 39.1 µM) | > 64 | > 64 | > 64 | > 64 | 16 (≈ 39.1 µM) | > 64 | 32 (≈ 78.1 µM) | 8 (≈ 19.5 µM) | > 64 | – | –
5 | CC1=C(C(=O)O)N2C(=O)[C@@H](NC(=O)[C@@H](N)c3cc4sc(Cl)cc4s3)[C@H]2SC1 [Ex. 2A, 7-L-(5-chlorothieno[3,2-b]thien-2-yl)glycylamido-3-methyl-3-cephem-4-carboxylic acid] | 2 (≈ 4.5 µM) | 64 (≈ 144 µM) | > 64 | 1 (≈ 2.25 µM) | 16 (≈ 36 µM) | 32 (≈ 72.1 µM) | > 64 | > 64 | 2 (≈ 4.5 µM) | 64 (≈ 144 µM) | > 64 | > 64 | > 64 | 2 (≈ 4.5 µM) | > 64 | – | 1 (≈ 2.25 µM) | > 64 | 64 (≈ 144 µM) | –
6 | CC1=C(C(=O)O)N2C(=O)[C@@H](NC(=O)[C@H](N)c3cc4sc(Cl)cc4s3)[C@H]2SC1 [Ex. 2B, 7-D-(5-chlorothieno[3,2-b]thien-2-yl)glycylamido-3-methyl-3-cephem-4-carboxylic acid] | 2 (≈ 4.5 µM) | 32 (≈ 72.1 µM) | 64 (≈ 144 µM) | 0.125 (≈ 0.282 µM) | 4 (≈ 9.01 µM) | – | > 64 | > 64 | 0.25 (≈ 0.563 µM) | 16 (≈ 36 µM) | > 64 | > 64 | > 64 | 0.5 (≈ 1.13 µM) | > 64 | – | 0.25 (≈ 0.563 µM) | > 64 | 16 (≈ 36 µM) | –
7 | CC1=C(C(=O)O)N2C(=O)[C@@H](NC(=O)[C@H](N)c3cc4ccsc4s3)[C@H]2SC1 [Ex. 3A, 7-D-(thieno[2,3-b]thien-2-yl)-glycylamido-3-methyl-3-cephem-4-carboxylic acid] | 2 (≈ 4.88 µM) | – | > 64 | 0.25 (≈ 0.61 µM) | 4 (≈ 9.77 µM) | 16 (≈ 39.1 µM) | 64 (≈ 156 µM) | > 64 | 0.5 (≈ 1.22 µM) | 8 (≈ 19.5 µM) | > 64 | > 64 | > 64 | 1 (≈ 2.44 µM) | > 64 | 32 (≈ 78.1 µM) | 0.5 (≈ 1.22 µM) | > 64 | – | –
8 | CC1=C(C(=O)O)N2C(=O)[C@@H](NC(=O)[C@@H](N)c3cc4ccsc4s3)[C@H]2SC1 [Ex. 3B, 7-L-(thieno[2,3-b]thien-2-yl)-glycylamido-3-methyl-3-cephem-4-carboxylic acid] | 1 (≈ 2.44 µM) | 16 (≈ 39.1 µM) | > 64 | 1 (≈ 2.44 µM) | 8 (≈ 19.5 µM) | 64 (≈ 156 µM) | > 64 | > 64 | 2 (≈ 4.88 µM) | 16 (≈ 39.1 µM) | > 64 | > 64 | > 64 | 2 (≈ 4.88 µM) | > 64 | – | 1 (≈ 2.44 µM) | > 64 | 64 (≈ 156 µM) | –
